The source of these data is patent US20120270237A9, “METHODS FOR THE IDENTIFICATION OF KINASE INTERACTING MOLECULES AND FOR THE PURIFICATION OF KINASE PROTEINS” (Cellzone AG, priority 2009, published 2012).

Holding throughout (assay): Kinobeads competition binding, HL60 cell lysate
What all share (design): endogenous in cells
What all share (conditions): 10 μM free compound

One assay addresses Wee1 (Homo sapiens, UniProt P30291). Put shortly: (§1)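 HL60 lysate (50 mg protein) pre-incubated with 10 μM free compound or 0.5% DMSO, then captured on beads bearing the immobilized compound for 2 h at 4 °C. Eluted proteins were trypsin-digested in-gel, iTRAQ-labeled and quantified by LC-MS/MS from reporter-ion peak areas relative to the DMSO control.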
The next assay deals with BTK (Homo sapiens, UniProt Q06187). An outline of the steps: as §1
The target in another assay is PLK1 (Homo sapiens, UniProt P53350). Put shortly: as §1
The target in another assay is AAK1 (Homo sapiens, UniProt Q2M2I8). An outline of the steps: as §1
The target of another assay is MLK4 (Homo sapiens, UniProt Q5TCX8). Put shortly: as §1
The target in the next assay is AurB (Homo sapiens, UniProt Q96GD4). Put shortly:
as §1

Another assay deals with TGFbR1 (Homo sapiens, UniProt P36897). Put shortly: as §1
Another assay deals with SLK (Homo sapiens, UniProt Q9H2G2). An outline of the steps:
as §1

The target in another assay is STK33 (Homo sapiens, UniProt Q9BYT3). Put shortly:
as §1

A further assay concerns the target JNK2 (Homo sapiens, UniProt P45984). An outline of the steps:
as §1

The target in another assay is T1, ULK3 (Homo sapiens, UniProt Q6PHR2).
T1 sequence (Q6PHR2 1-472): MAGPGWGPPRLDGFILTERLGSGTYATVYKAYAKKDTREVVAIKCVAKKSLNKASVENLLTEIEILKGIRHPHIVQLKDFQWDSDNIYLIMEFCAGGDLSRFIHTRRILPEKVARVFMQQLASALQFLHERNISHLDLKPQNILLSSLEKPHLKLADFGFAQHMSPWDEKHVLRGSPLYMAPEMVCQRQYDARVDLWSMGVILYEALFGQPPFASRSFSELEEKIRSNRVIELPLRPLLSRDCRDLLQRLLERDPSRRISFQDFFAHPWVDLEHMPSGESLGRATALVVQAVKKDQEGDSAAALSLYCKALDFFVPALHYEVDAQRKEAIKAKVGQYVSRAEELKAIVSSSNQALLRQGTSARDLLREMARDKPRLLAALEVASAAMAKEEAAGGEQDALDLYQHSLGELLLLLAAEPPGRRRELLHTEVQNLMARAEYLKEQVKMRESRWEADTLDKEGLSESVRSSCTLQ
Put shortly: as §1

Each structure is given as a SMILES string.

Sequence of BTK (Q06187 whole entry): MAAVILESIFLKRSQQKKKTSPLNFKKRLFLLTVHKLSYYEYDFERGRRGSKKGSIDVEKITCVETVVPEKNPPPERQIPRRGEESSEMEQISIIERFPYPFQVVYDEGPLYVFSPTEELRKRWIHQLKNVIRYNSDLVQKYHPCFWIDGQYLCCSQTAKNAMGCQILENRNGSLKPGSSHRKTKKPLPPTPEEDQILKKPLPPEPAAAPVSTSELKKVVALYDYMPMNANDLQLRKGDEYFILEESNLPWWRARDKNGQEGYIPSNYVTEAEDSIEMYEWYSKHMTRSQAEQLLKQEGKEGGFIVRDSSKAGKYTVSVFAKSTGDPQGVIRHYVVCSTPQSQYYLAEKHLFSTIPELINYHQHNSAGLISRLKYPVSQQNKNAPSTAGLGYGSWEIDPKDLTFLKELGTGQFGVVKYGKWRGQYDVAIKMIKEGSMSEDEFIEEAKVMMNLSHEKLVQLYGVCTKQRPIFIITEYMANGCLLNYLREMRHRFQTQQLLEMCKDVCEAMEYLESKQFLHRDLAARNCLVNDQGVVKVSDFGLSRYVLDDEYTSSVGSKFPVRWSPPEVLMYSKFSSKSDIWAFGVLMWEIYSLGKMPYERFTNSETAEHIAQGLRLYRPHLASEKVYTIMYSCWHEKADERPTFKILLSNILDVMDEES
Sequence of MLK4 (Q5TCX8 whole entry): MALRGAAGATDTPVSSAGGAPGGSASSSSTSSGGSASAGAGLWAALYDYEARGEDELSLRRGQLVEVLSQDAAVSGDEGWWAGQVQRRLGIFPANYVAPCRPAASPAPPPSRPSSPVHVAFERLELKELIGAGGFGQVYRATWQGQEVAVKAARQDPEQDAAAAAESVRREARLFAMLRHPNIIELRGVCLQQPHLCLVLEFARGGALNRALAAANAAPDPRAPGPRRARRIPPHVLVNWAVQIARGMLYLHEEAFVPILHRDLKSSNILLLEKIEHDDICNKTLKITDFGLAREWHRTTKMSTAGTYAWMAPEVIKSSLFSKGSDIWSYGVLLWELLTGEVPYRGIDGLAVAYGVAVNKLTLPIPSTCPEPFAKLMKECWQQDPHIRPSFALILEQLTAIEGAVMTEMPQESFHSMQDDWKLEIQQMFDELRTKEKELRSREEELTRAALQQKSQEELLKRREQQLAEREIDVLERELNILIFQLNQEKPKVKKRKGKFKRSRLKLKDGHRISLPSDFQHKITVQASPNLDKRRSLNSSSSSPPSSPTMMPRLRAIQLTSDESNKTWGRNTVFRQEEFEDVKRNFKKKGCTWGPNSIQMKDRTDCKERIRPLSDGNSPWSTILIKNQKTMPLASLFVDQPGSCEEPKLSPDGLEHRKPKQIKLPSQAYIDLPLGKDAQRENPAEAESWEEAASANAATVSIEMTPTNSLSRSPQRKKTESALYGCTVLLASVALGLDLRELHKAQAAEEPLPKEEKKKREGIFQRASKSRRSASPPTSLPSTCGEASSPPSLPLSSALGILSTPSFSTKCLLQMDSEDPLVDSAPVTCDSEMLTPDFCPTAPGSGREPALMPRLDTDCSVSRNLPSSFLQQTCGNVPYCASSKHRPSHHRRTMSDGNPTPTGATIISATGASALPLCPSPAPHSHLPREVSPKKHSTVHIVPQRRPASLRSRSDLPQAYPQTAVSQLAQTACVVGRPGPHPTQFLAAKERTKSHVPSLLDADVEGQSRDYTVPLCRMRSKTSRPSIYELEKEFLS
Sequence of AurB (Q96GD4 whole entry): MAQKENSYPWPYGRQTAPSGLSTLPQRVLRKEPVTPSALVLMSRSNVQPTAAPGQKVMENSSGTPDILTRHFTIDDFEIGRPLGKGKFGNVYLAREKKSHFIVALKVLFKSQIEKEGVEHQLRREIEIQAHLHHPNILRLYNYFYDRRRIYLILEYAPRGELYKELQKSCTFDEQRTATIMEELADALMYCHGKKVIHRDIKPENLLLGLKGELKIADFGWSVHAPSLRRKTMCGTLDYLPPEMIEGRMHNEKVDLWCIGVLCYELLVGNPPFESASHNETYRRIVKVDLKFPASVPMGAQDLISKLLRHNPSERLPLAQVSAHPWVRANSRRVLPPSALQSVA
Sequence of Wee1 (P30291 whole entry): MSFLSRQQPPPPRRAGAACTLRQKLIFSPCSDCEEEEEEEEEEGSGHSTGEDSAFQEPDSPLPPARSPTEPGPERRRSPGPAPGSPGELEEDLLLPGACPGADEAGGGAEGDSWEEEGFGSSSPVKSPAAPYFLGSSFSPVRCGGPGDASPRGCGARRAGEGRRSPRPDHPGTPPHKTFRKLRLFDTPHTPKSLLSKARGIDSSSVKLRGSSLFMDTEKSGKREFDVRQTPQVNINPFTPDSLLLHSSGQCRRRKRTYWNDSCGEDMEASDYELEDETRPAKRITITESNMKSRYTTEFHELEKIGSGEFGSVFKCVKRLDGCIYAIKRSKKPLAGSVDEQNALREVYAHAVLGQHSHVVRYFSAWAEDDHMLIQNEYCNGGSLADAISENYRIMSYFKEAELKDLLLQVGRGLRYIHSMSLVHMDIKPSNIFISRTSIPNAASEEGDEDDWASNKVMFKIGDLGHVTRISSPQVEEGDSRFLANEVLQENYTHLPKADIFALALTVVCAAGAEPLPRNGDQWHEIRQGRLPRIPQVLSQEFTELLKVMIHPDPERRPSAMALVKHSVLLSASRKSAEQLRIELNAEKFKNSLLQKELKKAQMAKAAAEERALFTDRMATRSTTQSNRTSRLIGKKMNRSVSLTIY
Sequence of AAK1 (Q2M2I8 whole entry): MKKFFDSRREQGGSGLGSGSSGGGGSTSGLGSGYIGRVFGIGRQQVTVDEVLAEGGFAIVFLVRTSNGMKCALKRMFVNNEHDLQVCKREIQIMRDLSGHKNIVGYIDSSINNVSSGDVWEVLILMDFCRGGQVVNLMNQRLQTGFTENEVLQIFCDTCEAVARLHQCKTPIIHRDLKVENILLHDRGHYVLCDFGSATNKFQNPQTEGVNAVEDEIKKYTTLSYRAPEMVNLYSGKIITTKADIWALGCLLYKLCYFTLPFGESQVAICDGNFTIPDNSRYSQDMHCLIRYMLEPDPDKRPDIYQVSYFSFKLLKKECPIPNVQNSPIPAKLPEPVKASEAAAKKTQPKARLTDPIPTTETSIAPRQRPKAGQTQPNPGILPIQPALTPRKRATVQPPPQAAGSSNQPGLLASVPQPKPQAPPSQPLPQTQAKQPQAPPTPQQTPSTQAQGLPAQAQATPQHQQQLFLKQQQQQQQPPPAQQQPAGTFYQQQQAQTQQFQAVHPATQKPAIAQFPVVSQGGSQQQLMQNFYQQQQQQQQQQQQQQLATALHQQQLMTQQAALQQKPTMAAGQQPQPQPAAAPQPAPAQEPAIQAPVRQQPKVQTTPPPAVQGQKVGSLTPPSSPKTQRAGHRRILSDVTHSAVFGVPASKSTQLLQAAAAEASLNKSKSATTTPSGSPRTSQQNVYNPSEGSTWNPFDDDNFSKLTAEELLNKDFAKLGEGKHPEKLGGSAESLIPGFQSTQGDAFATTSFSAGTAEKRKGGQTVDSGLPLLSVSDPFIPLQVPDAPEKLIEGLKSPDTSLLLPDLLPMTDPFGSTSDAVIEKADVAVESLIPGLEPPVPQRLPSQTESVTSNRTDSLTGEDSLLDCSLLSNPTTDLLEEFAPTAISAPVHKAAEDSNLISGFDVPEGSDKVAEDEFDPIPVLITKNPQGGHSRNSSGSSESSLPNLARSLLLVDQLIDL
Sequence of STK33 (Q9BYT3 whole entry): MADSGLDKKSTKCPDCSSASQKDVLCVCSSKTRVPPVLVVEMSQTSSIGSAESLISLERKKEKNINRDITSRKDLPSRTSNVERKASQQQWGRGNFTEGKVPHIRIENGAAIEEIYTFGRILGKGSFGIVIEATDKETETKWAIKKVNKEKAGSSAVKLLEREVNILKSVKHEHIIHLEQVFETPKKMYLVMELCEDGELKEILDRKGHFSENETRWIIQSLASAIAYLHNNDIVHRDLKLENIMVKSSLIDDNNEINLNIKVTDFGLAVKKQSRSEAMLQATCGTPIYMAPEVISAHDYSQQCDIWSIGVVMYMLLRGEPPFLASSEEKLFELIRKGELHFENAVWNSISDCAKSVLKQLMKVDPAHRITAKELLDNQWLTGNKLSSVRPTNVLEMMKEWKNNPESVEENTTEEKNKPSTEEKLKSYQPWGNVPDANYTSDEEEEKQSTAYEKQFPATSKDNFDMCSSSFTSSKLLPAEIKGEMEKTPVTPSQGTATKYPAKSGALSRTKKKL
Sequence of JNK2 (P45984 whole entry): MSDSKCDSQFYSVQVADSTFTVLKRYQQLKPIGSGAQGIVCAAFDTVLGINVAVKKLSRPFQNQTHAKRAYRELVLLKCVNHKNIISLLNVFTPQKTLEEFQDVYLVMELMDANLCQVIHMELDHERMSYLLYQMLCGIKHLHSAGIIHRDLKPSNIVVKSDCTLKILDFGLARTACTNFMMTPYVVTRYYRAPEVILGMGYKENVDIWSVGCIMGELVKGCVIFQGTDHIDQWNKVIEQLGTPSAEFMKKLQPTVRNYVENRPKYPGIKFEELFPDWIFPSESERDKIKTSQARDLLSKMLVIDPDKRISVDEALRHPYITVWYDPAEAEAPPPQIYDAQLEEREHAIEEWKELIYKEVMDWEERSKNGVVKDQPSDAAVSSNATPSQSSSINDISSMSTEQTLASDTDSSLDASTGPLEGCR

What is called inhibition is the drop in the measured response relative to a control, in per cent. Lower therefore signals a weak effect. Regarding `CS(=O)(=O)Nc1ccccc1Nc1nc(Nc2cccc(OCCN)c2)ncc1Cl` [CZC31326, N-(2-(2-(3-(2-aminoethoxy)phenylamino)-5-chloropyrimidin-4-ylamino)phenyl)methanesulfonamide], the inhibition at 10 µM at Wee1 turned out to be 98.2%; at PLK1 it was 97.8%; at AAK1 it was 97.8%; at MLK4 it was 95%; on AurB, 95%; on TGFbR1, 95.6%. The results for the inhibition at 10 µM on SLK and at STK33 were 97.5% and 96.9%, respectively. Further, the Competition % on BTK was 97.1%; on JNK2, 87.8%; at ULK3, 97.7%.
